Measurements reported in US9770446B2, “Piperidine urea derivatives” (MERCK PATENT GMBH, priority 2013, dated 2017).
pIC50: −log10 of the molar value.

Experiments:
[1] = target: T1, GST-tagged Tnks-2 (873-1166 aa) (Homo sapiens, UniProt Q9H2K2); test: TNKS2 activity ELISA (autoparsylation assay); format: biochemical
T1 construct: GST-tagged Tnks-2 (873-1166 aa, prepared in-house); made in house
Method in brief: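 Each GST-tagged enzyme (20 ng/well) was captured overnight at 4 °C on glutathione plates, then auto-ADP-ribosylated with 10 μM biotin-NAD for 1 h at 30 °C, pH 7.7, 0.5% DMSO, compound at 10 concentrations. Streptavidin-HRP chemiluminescence measured the signal. IC50 relative to inhibitor-free reaction, with 5 μM XAV-939 defining zero.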

[2] = target: T2, GST-tagged Tankyrase-1 (1023-1327 aa) (Homo sapiens, UniProt O95271); test: Tankyrase 1 autoparsylation HTRF enzyme assay; format: biochemical; details: read-out: IC50 TNKS1 enzyme assay
T2 construct: GST-tagged Tankyrase-1 (1023-1327 aa)
Experimental: Biochemical activity testing of Tankyrase 1 and 2: Autoparsylation assay
The autoparsylation assay is run in two steps: the enzymatic reaction in which GST-tagged Tankyrase-1, resp Tankyrase-2 transferred biotinylated ADP-ribose to itself from biotinylated NAD as co-substrate and the detection reaction where a time resolved FRET between cryptate labelled anti-GST bound to the GST tag of the enzyme and Xlent® labelled-streptavidin bound the biotin-parsylation residue is analysed. The autoparsylation activity was detectable directly via the increase in HTRF signal.
The autoparsylation assay is performed as 384-well HTRF® (Cisbio, Codolet, France) assay format in Greiner low volume nb 384-well microtiter plates and is used for high throughput screen. 250 nM GST-tagged Tankyrase-1 (1023-1327 aa), respectively about 250 nM GST-tagged Tankyrase-2 (873-1166 aa) and 5 μM bio-NAD (Biolog, Life science Inst., Bremen, Germany) as co-substrate are incubated in a total volume of 5 μl (50 mM HEPES, 4 mM Mg-chloride, 0.05% Pluronic F-68, 1.4 mM DTT, 0.5% DMSO, pH 7.7) in the absence or presence of the test compound (10 dilution concentrations) for 90 min at 30° C. The reaction is stopped by the addition of 1 μl 50 mM EDTA solution. 2 μl of the detection solution (1.6 μM SA-Xlent® (Cisbio, Codolet, France), 7.4 nM Anti-GST-K® (Eu-labelled anti-GST, Cisbio, Codolet, France) in 50 mM HEPES, 800 mM KF, 0.1% BSA, 20 mM EDTA, 0.1% CHAPS, pH 7.0) are added. After 1 h incubation at room temperature the HTRF is measured with an Envision multimode reader (Perkin Elmer LAS Germany GmbH) at excitation wavelength 340 nm (laser mode) and emission wavelengths 615 nm and 665 nm. The ratio of the emission signals is determined. The full value used is the inhibitor-free reaction. The pharmacological zero value used is XAV-939 (Tocris) in a final concentration of 5 μM. The inhibitory values (IC50) are determined using either the program Symyx Assay Explorer® or Condosseo® from GeneData.

[3] = tested on: Tankyrase; test: Cellular inhibition of Tankyrase: Axin2 level in DLD1 cells (Luminex); format: cell-based; details: 24 hours, Axin2 increase, read-out: EC50 [M] TNKS cellular assay
Method in brief: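 DLD1 colon carcinoma cells treated 24 h with seven-step serial dilutions in triplicate (0.3% DMSO final). Axin2 in cleared lysates captured on anti-Axin2 beads, detected with polyclonal anti-Axin2 plus PE secondary, and quantified by Luminex. EC50 from data normalized to solvent control; IWR-2 (3E-06 M) marks maximal Axin2 increase.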

T1 sequence (Q9H2K2 873-1166): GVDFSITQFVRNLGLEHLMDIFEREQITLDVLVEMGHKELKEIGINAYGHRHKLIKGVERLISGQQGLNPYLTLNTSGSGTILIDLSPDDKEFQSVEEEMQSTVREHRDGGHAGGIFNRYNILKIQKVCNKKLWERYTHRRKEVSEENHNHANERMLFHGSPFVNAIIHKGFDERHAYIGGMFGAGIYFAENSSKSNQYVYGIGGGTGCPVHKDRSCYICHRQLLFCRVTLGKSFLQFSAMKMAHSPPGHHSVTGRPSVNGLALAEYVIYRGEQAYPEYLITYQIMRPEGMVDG
T2 sequence (O95271 1023-1327): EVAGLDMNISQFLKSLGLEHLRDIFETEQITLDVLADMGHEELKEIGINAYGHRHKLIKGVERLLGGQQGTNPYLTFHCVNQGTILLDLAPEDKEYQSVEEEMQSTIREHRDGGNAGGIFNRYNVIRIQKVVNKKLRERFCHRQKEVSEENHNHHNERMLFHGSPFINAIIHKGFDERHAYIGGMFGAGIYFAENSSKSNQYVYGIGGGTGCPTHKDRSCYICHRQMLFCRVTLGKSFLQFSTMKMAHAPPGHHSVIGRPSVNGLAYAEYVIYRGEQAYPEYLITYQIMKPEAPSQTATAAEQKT

## Cc1cccc(N(C)C(=O)N2CCC(C(=O)c3ccccc3)CC2)c1 [Compound A1, 4-benzoyl-piperidine-1-carboxylic acid methyl-m-tolyl-amide]
[1]
  IC50: < 300 nM
[2]
  pIC50: 5.52 to 6.52
[3]
  EC50: 3e-07 to 3e-06 M

## Cc1ccc(N(C)C(=O)N2CCC(C(=O)c3ccccc3)CC2)cc1 [Compound A2, 4-benzoyl-piperidine-1-carboxylic acid methyl-p-tolyl-amide]
[1]
  IC50: < 300 nM
[2]
  pIC50: 5.52 to 6.52
[3]
  EC50: 3e-07 to 3e-06 M

## COc1ccc(N(C)C(=O)N2CCC(C(=O)c3ccccc3)CC2)cc1 [Compound A4, 4-benzoyl-piperidine-1-carboxylic acid (4-methoxy-phenyl)-methyl-amide]
[1]
  IC50: < 300 nM
[2]
  pIC50: 5.52 to 6.52
[3]
  EC50: 3e-07 to 3e-06 M

## COc1ccc(N(C)C(=O)N2CCC(C(=O)c3ccc(C)cc3)CC2)cc1 [Compound A5, 4-(4-methyl-benzoyl)-piperidine-1-carboxylic acid (4-methoxy-phenyl)-methylamide]
[1]
  IC50: < 300 nM
[2]
  pIC50: > 6.52
[3]
  EC50: < 3e-07 M

## COc1ccc(C(=O)C2CCN(C(=O)N(C)c3ccc(OC)cc3)CC2)cc1 [Compound A6, 4-(4-methoxy-benzoyl)-piperidine-1-carboxylic acid (4-methoxy-phenyl)methyl-amide]
[1]
  IC50: < 300 nM
[2]
  pIC50: > 6.52
[3]
  EC50: < 3e-07 M

## COc1ccc(N(C)C(=O)N2CCC(C(=O)c3cccc(F)c3)CC2)cc1 [Compound A7, 4-(3-fluoro-benzoyl)-piperidine-1-carboxylic acid (4-methoxy-phenyl)-methylamide]
[1]
  IC50: < 300 nM
[2]
  pIC50: 5.52 to 6.52
[3]
  EC50: 3e-07 to 3e-06 M

## COc1ccc(N(C)C(=O)N2CCC(C(=O)c3ccc(F)cc3)CC2)cc1 [Compound A8, 4-(4-fluoro-benzoyl)-piperidine-1-carboxylic acid (4-methoxy-phenyl)-methylamide]
[1]
  IC50: < 300 nM
[2]
  pIC50: 5.52 to 6.52
[3]
  EC50: < 3e-07 M

## CN(C(=O)N1CCC(C(=O)c2ccccc2)CC1)c1ccc(F)cc1 [Compound A13, 4-benzoyl-piperidine-1-carboxylic acid (4-fluoro-phenyl)-methyl-amide]
[1]
  IC50: < 300 nM
[2]
  pIC50: 5.52 to 6.52
[3]
  EC50: 3e-07 to 3e-06 M

## CCN(C(=O)N1CCC(C(=O)c2ccccc2)CC1)c1ccc(OC)cc1 [Compound A14, 4-benzoyl-piperidine-1-carboxylic acid ethyl-(4-methoxy-phenyl)-amide]
[1]
  IC50: < 300 nM
[2]
  pIC50: > 6.52
[3]
  EC50: < 3e-07 M

## COc1ccc(N(CCO)C(=O)N2CCC(C(=O)c3ccccc3)CC2)cc1 [Compound A15, 4-benzoyl-piperidine-1-carboxylic acid (2-hydroxy-ethyl)-(4-methoxy-phenyl)amide]
[1]
  IC50: < 300 nM
[2]
  pIC50: 5.52 to 6.52
[3]
  EC50: 3e-07 to 3e-06 M

## O=C(c1ccccc1)C1CCN(C(=O)N2CCc3ccccc32)CC1 [Compound A16, (4-benzoyl-piperidin-1-yl)-(2,3-dihydro-indol-1-yl)-methanone]
[1]
  IC50: < 300 nM
[2]
  pIC50: 5.52 to 6.52
[3]
  EC50: 3e-06 to 5e-05 M

## Cc1ccc(C(=O)C2CCN(C(=O)N3CCc4ccccc43)CC2)cc1 [Compound A17, (2,3-dihydro-indol-1-yl)-[4-(4-methyl-benzoyl)-piperidin-1-yl]-methanone]
[1]
  IC50: < 300 nM
[2]
  pIC50: 5.52 to 6.52
[3]
  EC50: 3e-07 to 3e-06 M

## COc1ccc(C(=O)C2CCN(C(=O)N3CCc4ccccc43)CC2)cc1 [Compound A18, (2,3-dihydro-indol-1-yl)-[4-(4-methoxy-benzoyl)-piperidin-1-yl]-methanone]
[1]
  IC50: < 300 nM
[2]
  pIC50: 5.52 to 6.52
[3]
  EC50: 3e-07 to 3e-06 M

## CCN(C(=O)N1CCC(C(=O)c2ccc(OC)c(C)c2)CC1)c1ccc(OC)cc1 [Compound A24, 4-(4-methoxy-3-methyl-benzoyl)-piperidine-1-carboxylic acid ethyl-(4-methoxy-phenyl)-amide]
[1]
  IC50: < 300 nM
[2]
  pIC50: > 6.52
[3]
  EC50: < 3e-07 M

## COc1ccc(N(C)C(=O)N2CCC(C(=O)c3cccc(C)c3)CC2)cc1 [Compound A25, 4-(3-methyl-benzoyl)-piperidine-1-carboxylic acid (4-methoxy-phenyl)methyl-amide]
[1]
  IC50: < 300 nM
[2]
  pIC50: > 6.52
[3]
  EC50: < 3e-07 M

## CCN(C(=O)N1CCC(C(=O)c2cccc(C)c2)CC1)c1ccc(OC)cc1 [Compound A26, 4-(3-methyl-benzoyl)-piperidine-1-carboxylic acid ethyl-(4-methoxy-phenyl)amide]
[1]
  IC50: < 300 nM
[2]
  pIC50: > 6.52
[3]
  EC50: < 3e-07 M

## COc1ccc(N(C)C(=O)N2CCC(C(=O)c3cccc(OC)c3)CC2)cc1 [Compound A27, 4-(3-methoxy-benzoyl)-piperidine-1-carboxylic acid (4-methoxy-phenyl)methyl-amide]
[1]
  IC50: < 300 nM
[2]
  pIC50: > 6.52
[3]
  EC50: < 3e-07 M

## CCN(C(=O)N1CCC(C(=O)c2cccc(OC)c2)CC1)c1ccc(OC)cc1 [Compound A28, 4-(3-methoxy-benzoyl)-piperidine-1-carboxylic acid ethyl-(4-methoxy-phenyl)amide]
[1]
  IC50: < 300 nM
[2]
  pIC50: > 6.52
[3]
  EC50: < 3e-07 M

## COc1ccc(N(C)C(=O)N2CCC(C(=O)c3ccc(OC)c(F)c3)CC2)cc1 [Compound A29, 4-(3-fluoro-4-methoxy-benzoyl)-piperidine-1-carboxylic acid (4-methoxy-phenyl)-methyl-amide]
[1]
  IC50: < 300 nM
[3]
  EC50: < 3e-07 M

## CN(C(=O)N1CCC(C(=O)c2ccc(NS(C)(=O)=O)cc2)CC1)c1ccccc1 [Compound A38, 4-(4-methanesulfonylamino-benzoyl)-piperidine-1-carboxylic acid methyl-phenyl-amide]
[1]
  IC50: < 300 nM
[2]
  pIC50: > 6.52
[3]
  EC50: 3e-07 to 3e-06 M

## CCOC(=O)CN(C(=O)N1CCC(C(=O)c2ccc(OC)cc2)CC1)c1ccccc1 [Compound A40, {[4-(4-methoxy-benzoyl)-piperidine-1-carbonyl]-phenyl-amino}-acetic acid ethyl ester]
[1]
  IC50: < 300 nM
[2]
  pIC50: > 6.52
[3]
  EC50: < 3e-07 M
